Here are results for twelve compounds from patent publication US8377934B2, “Use of stilbene derivatives for treatment and prevention of aquatic mold infections” (State of Israel, Ministry of Agriculture & Rural …, priority 2006, dated 2013).

Converted amounts (≈) assume the structure as drawn. Like-named read-outs stand apart in the source and are kept apart here.

The test system of series [1] is S. parasitica CBS 540.67. In words: Broth macrodilution susceptibility testing (zoospores and cysts). It is filed as cell-based, Saprolegnia parasitica. The note with it: S. parasitica CBS 540.67, 24 h, 15-20° C., geometric mean of three tests; for MIC: Saprolegnia parasitica, CBS540, read-out: MIC, Macrodilution. How it is done:
(§1) Two methods were used, each suitable for a different phase of the asexual life cycle of Saprolegnia spp.: i) the broth macrodilution method, for determination of susceptibility of zoospores and cysts; and ii) the agar-dilution method for determination of susceptibility of filamentous hyphae. Each compound was tested three times in each method. Malachite Green was used as positive control.
(§2) This method is a modification of the method used for molds according to EUCAST 7.1 (European Committee on Antibiotic Susceptibility Testing) and CLSI/NCCLS M27-A2 (Clinical Laboratory Standards Institute/National Committee for Clinical Laboratory Standards). For inoculum preparation, S. parasitica isolates were cultured on GP-PS for 7 days with sterile clover seeds at 18° C. […] Cysts and zoospores free from hyphae were collected, and an inoculum of ˜10^3 CFU/ml as measured by hemacytometer counting, was prepared in RPMI. Fluorescent Brightener 28 stock solution was prepared by adding 40% KOH gradually to a 10 mg/ml solution in water, until it was clear, then it was filtered twice through a 0.2 μm cellulose acetate nonpyrogenic sterile filter (Schleicher & Schuell, Dassel, Germany).
(§3) Final drug concentrations in the test tubes ranged from 1×10^4 to 0.01 mg/L. Inoculum of 0.9 ml was added to each of a sterile tube containing 0.1 ml of the serially diluted drug. Two tubes containing drug-free medium and two tubes containing drug-free inoculum were used as controls. The inoculated tubes were incubated at room temperature (15-20° C.) for 24 h. The growth in each tube was then evaluated visually.

Series [2] concerns S. parasitica T-1. Described as above. The class given is cell-based, Saprolegnia parasitica. The following applies: S. parasitica T-1, 24 h, 15-20° C., geometric mean of three tests; for MIC: Saprolegnia parasitica, read-out: MIC, Macrodilution. As for the experimental part: as §1, §2, §3
For series [3], the system named is S. parasitica CBS 540.67. In words: Agar-dilution susceptibility testing (filamentous hyphae). It is filed as cell-based, Saprolegnia parasitica. The following applies: S. parasitica CBS 540.67, 24 h, 15-20° C., geometric mean of three tests; for MIC: Saprolegnia parasitica, CBS540, read-out: MIC, Agar-dilution.
In series [4] the test system is S. parasitica T-1. The series is described as above. The following applies: S. parasitica T-1, 24 h, 15-20° C., geometric mean of three tests; for MIC: Saprolegnia parasitica, read-out: MIC, Agar-dilution. The class given is cell-based, Saprolegnia parasitica. How it is done:
as §1
Twofold serial dilutions were prepared in double distillated sterile water with final drug concentrations ranging from 10,000 to 0.01 mg/L in a final volume of 1.0 ml. […] The mixture was vortexed, and poured into small plates. After agar solidification a small measured piece, taken from a 7-10 day old culture of S. parasitica T-1 on GP-PS medium was placed upside down on each plate. The plates were incubated at room temperature (15-20° C.) for 24 h.

The test system of another series is tilapia. In words: in vivo. As for the experimental part: (§4) LC50 values were determined by static short-term tests as a measure of the relative acute lethal toxicity for tilapia (Standard methods for the evaluation of water and wastewater (1985) 16th ed. American Public Health Association, Washington, D.C. p. 689-819).
(§5) Hybrid tilapia (Oreochromis niloticus X Oreochromis aureus) having an average weight of 20 g, were kept in 100 liter polyethylene tanks at a density of 1 fish per 10 liters, at a constant temperature of 21° C. for three weeks before the initiation of the experiment by addition of a test compound to each tank. […] For the latter experiments, fish were acclimated to the required temperature for three weeks prior to addition of the test compound to the tank. Fish were treated with 5 different concentrations of each test compound, determined according to the MIC values of each compound.
(§6) Mortality of fish was recorded up to 96 h. Water parameters (O2, NH4^+, NO2^−, pH and Cl^−) were monitored throughout the experiment and were maintained within acceptable limits. The presented results are the mean of two separate experiments.

Another series concerns S. parasitica. The experiment in a line: In vitro susceptibility of S. parasitica in Table 4. It is filed as cell-based, Saprolegnia parasitica. The note with it: for MIC: Saprolegnia parasitica. As for the experimental part: The in vitro susceptibility of Saprolegnia parasitica T-1 and S. parasitica CBS 540.67 to various compounds was determined by the agar-dilution and broth macrodilution methods.
as §1
This method is a modification of the method used for molds according to EUCAST 7.1 (European Committee on Antibiotic Susceptibility Testing) and CLSI/NCCLS M27-A2 (Clinical Laboratory Standards Institute/National Committee for Clinical Laboratory Standards). For inoculum preparation, S. parasitica isolates were cultured on GP-PS for 7 days with sterile clover seeds at 18° C. Clover seeds (˜20) covered with mycelium were removed and added to 40 ml of RPMI-1640 broth medium (Sigma; prepared according to NCCLS instructions) and incubated at 18° C. for 4-7 days. Cysts and zoospores free from hyphae were collected, and an inoculum of ˜10^3 CFU/ml as measured by hemacytometer counting, was prepared in RPMI. Fluorescent Brightener 28 stock solution was prepared by adding 40% KOH gradually to a 10 mg/ml solution in water, until it was clear, then it was filtered twice through a 0.2 μm cellulose acetate nonpyrogenic sterile filter (Schleicher & Schuell, Dassel, Germany).
Twofold serial dilutions of the resulting stock solutions were set in RPMI-1640 medium in a volume of 0.1 ml. Final drug concentrations in the test tubes ranged from 1×10^4 to 0.01 mg/L. Inoculum of 0.9 ml was added to each of a sterile tube containing 0.1 ml of the serially diluted drug. Two tubes containing drug-free medium and two tubes containing drug-free inoculum were used as controls. The inoculated tubes were incubated at room temperature (15-20° C.) for 24 h. The growth in each tube was then evaluated visually.
This method is a modification of the method presented by Bailey (Bailey, T. A. (1983) Prog. Fish Cult. 45:24-27), and was used for the susceptibility testing of Saprolegnia hyphae. Twofold serial dilutions were prepared in double distillated sterile water with final drug concentrations ranging from 10,000 to 0.01 mg/L in a final volume of 1.0 ml. Melted (56° C.) RPMI-1640 agar medium (Sigma) was prepared according to NCCLS instructions, and then added to each tube containing drug or water control. The mixture was vortexed, and poured into small plates. After agar solidification a small measured piece, taken from a 7-10 day old culture of S. parasitica T-1 on GP-PS medium was placed upside down on each plate. The plates were incubated at room temperature (15-20° C.) for 24 h.

Another series is described as follows: in vivo. The note with it: hybrid tilapia (Oreochromis niloticus X Oreochromis aureus), in vivo, LC50. As for the experimental part:
as §4, §5, §6

[5] abbreviates: Table 4 summary, read-out: Activity in vitro (MIC), value.
Where [6] appears, read: method and isolate not separated, read-out: MIC.

As for Triton X-100, the “MIC, Macrodilution” value in the series on S. parasitica CBS 540.67 [1] is 100 mg/L; in the series on S. parasitica T-1 [2], 50 mg/L. The “MIC, Agar-dilution” value against S. parasitica CBS 540.67 [3] and against S. parasitica T-1 [4] was 200 µg/mL in each case.

In the case of `O=S(=O)([O-])c1cc(Nc2nc(Nc3ccccc3)nc(N(CCO)CCO)n2)ccc1C=Cc1ccc(Nc2nc(Nc3ccccc3)nc(N(CCO)CCO)n2)cc1S(=O)(=O)[O-].[Na+].[Na+]` [Fluorescent Brightener 28], the results for the “MIC, Macrodilution” value against S. parasitica CBS 540.67 [1] and against S. parasitica T-1 [2] were 2 mg/L and 1 mg/L, respectively. Also, the “MIC, Agar-dilution” value in the series on S. parasitica CBS 540.67 [3] and with S. parasitica T-1 [4] was 5 µg/mL throughout.

`O=[N+]([O-])C(Br)(CO)CO` [Pyceze ®]: the MIC (usually the smallest concentration in the dilution series that meets the test's criterion for growth inhibition) came out at 100 µg/mL (≈ 500 µM) in the series with S. parasitica CBS 540.67 [1]; 100 µg/mL (≈ 500 µM) in the series on S. parasitica T-1 [2]; 200 µg/mL (≈ 1000 µM) with S. parasitica CBS 540.67 [3]; 100 µg/mL (≈ 500 µM) in the series on S. parasitica (setting [5]); 100 µg/mL (≈ 500 µM) in the series with S. parasitica T-1 [4]. For the same compound, the Toxicity result in the series on tilapia (Table 4 summary) is given as “Moderate (moderate = 50-200 ppm)”. The “LC50 values compared with respective MIC values” with tilapia (tilapia LC50 versus S. parasitica MIC) is given as “lower, similar or insignificantly different”.

Regarding `CCCCCCCCCCCCOS(=O)(=O)[O-].[Na+]` [SDS, Sodium dodecylsulfate], the minimum inhibitory concentration (MIC) was 250 µg/mL in the series with S. parasitica CBS 540.67 [1], 100 µg/mL with S. parasitica T-1 [2], 500 µg/mL with S. parasitica CBS 540.67 [3] and 500 µg/mL with S. parasitica T-1 [4].

As to `CCCCCCCCCCCCCCCC[N+](C)(C)C.[Br-]` [CTAB], the “MIC, Macrodilution” value against S. parasitica CBS 540.67 [1] and in the series with S. parasitica T-1 [2] was 5 mg/L throughout. The “MIC, Agar-dilution” value turned out to be 50 µg/mL against S. parasitica CBS 540.67 [3] and 10 µg/mL in the series on S. parasitica T-1 [4].

Regarding `[Cl-].[Na+]` [Sodium chloride], the “MIC, Macrodilution” value against S. parasitica CBS 540.67 [1] and in the series with S. parasitica T-1 [2] was 30,000 mg/L each time. Further, the “Activity in vitro (MIC), value” in the series with S. parasitica (Table 4 summary) is “Low (30,000 mg/L”.

Consider `OO` [Hydrogen peroxide], for which the MIC with S. parasitica CBS 540.67 [1] was 8 µg/mL (≈ 235 µM); in the series on S. parasitica T-1 [2] it was 10 µg/mL (≈ 294 µM); in the series on S. parasitica (setting [6]), not above 10 µg/mL; in the series on S. parasitica (setting [5]) it was 10 µg/mL (≈ 294 µM). Further, in the series with tilapia (in vivo), the Toxicity entry is recorded as “Moderate (key: High: high = 50 ppm; Moderate: moderate = 50-200 ppm; Low: low = >1000 ppm)”. Moreover, in “in vivo”, the median lethal concentration (LC50) – broadly, the concentration lethal to half of the exposed cells or organisms – was 75 µg/mL (≈ 2200 µM). The “Activity in vitro (MIC), grade” value in the series with S. parasitica (Table 4 summary) is reported as “High”.

As for Tween ® 80, the “MIC, Macrodilution” value with S. parasitica CBS 540.67 [1] and in the series on S. parasitica T-1 [2] was 100 mg/L each time. The “MIC, Agar-dilution” value against S. parasitica CBS 540.67 [3] and in the series on S. parasitica T-1 [4] was 200 µg/mL each time.

On to `C[C@@H]1[C@H](O)[C@@H](C)/C=C/C=C/C=C/C=C/C=C/C=C/C=C/[C@H](O[C@@H]2O[C@H](C)[C@@H](O)[C@H](N)[C@@H]2O)C[C@@H]2O[C@](O)(C[C@@H](O)C[C@@H](O)[C@H](O)CC[C@@H](O)C[C@@H](O)CC(=O)O[C@H]1C)C[C@H](O)[C@H]2C(=O)O` [Amphotericin B], for which the results for the “MIC, Macrodilution” value in the series with S. parasitica CBS 540.67 [1] and in the series on S. parasitica T-1 [2] were 0.25 mg/L (≈ 0.271 µM) and 0.5 mg/L (≈ 0.541 µM), respectively. In addition, the “MIC, Agar-dilution” value is 2.5 µg/mL (≈ 2.71 µM) against S. parasitica CBS 540.67 [3] and 5 µg/mL (≈ 5.41 µM) against S. parasitica T-1 [4]. The Toxicity result in the series with tilapia (Table 4 summary) is “Moderate (moderate = 50-200 ppm)”. Further, the “Activity in vitro (MIC), grade” value in the series on S. parasitica (Table 4 summary) is reported as “High”. Besides, the “Activity in vitro (MIC), value” with S. parasitica (Table 4 summary) is recorded as “(0.1-0.5 mg/L)”.

As for `C=CCOC(Cn1ccnc1)c1ccc(Cl)cc1Cl` (stereo not shown) [Enilconazole], the MIC in the series with S. parasitica CBS 540.67 [1] turned out to be 1 µg/mL (≈ 3.36 µM); with S. parasitica T-1 [2] it was 1 µg/mL (≈ 3.36 µM); with S. parasitica CBS 540.67 [3], 5 µg/mL (≈ 16.8 µM); with S. parasitica T-1 [4], 5 µg/mL (≈ 16.8 µM).

With `O=C([O-])[O-].O=C([O-])[O-].OO.OO.OO.[Na+].[Na+].[Na+].[Na+]` [Sodium percarbonate], the figures for the “MIC, Macrodilution” value against S. parasitica CBS 540.67 [1] and in the series on S. parasitica T-1 [2] were 2.5 mg/L and 5 mg/L, respectively. Moreover, the Toxicity entry in the series with tilapia (Table 4 summary) is recorded as “High (in (high = 50 ppm)”. Besides, the “Activity in vitro (MIC), grade” value in the series on S. parasitica (Table 4 summary) is “High”. In addition, the “Activity in vitro (MIC), value” in the series with S. parasitica (Table 4 summary) is “(10 mg/L)”.

As for `C[C@@H]1CC[C@@]2(OC1)O[C@H]1[C@@H](O)[C@H]3[C@@H]4CC[C@H]5C[C@@H](O[C@@H]6O[C@H](CO)[C@H](O[C@@H]7O[C@H](CO)[C@@H](O)[C@H](O[C@@H]8OC[C@@H](O)[C@H](O)[C@H]8O)[C@H]7O[C@@H]7O[C@H](CO)[C@H](O)[C@H](O[C@@H]8O[C@H](CO)[C@@H](O)[C@H](O)[C@H]8O)[C@H]7O)[C@H](O)[C@H]6O)[C@H](O)C[C@]5(C)[C@H]4CC[C@]3(C)[C@H]1[C@@H]2C` [Digitonin], the minimal inhibitory concentration (MIC) in the series with S. parasitica CBS 540.67 [1] is 2.5 µg/mL (≈ 2.03 µM); in the series with S. parasitica T-1 [2], 2.5 µg/mL (≈ 2.03 µM); in the series on S. parasitica CBS 540.67 [3], 20 µg/mL (≈ 16.3 µM); in the series on S. parasitica (setting [6]), not above 10 µg/mL; in the series with S. parasitica T-1 [4], 10 µg/mL (≈ 8.13 µM).
